Assay results published in patent publication US20210283163A1, “COMPOSITIONS AND METHODS FOR THE TREATMENT OF ACUTE AND CHRONIC PRURITIS” (Duke University, priority 2018, published 2021).

Legend:
hTRPA1 [1] = biological target: T1, hTRPA1 (Homo sapiens, UniProt O75762); assay: Whole-cell patch clamp, inward currents in HEK293 cells expressing hTRPA1; assay type: cell-based
Method: Cell Culture and Transfection. CD4^+ Myla cell line was cultured in RPMI 1640 media (GIBCO), supplemented with 2 mM Glutamine (GIBCO), 100 U/mL IL-2 (Sigma), 100 U/mL IL-4 (Sigma), and 10% human AB serum (Sigma). HuT 102 cell line was cultured in RPMI 1640 supplemented with pyruvate, HEPES, and 10% (v/v) fetal bovine serum (HyClone). HEK293-hTRPA1 stable cell line was cultured in MEM (GIBCO) containing 2 mM Glutamine, 4 μg/mL Blasticidin, 10% FBS (v/v). B16 and CHO cells were cultured in high glucose (4.5 g/L) Dulbecco's Modified Eagle's Medium (GIBCO) containing 10% (v/v) fetal bovine serum (GIBCO). Culture media were supplemented with 50 units/mL of penicillin and 50 μg/mL streptomycin, and cultures were maintained with 5% CO2 in 37° C. incubator. Transfection (2 μg cDNA) was performed with Lipofectamine™ 2000 Reagent (Invitrogen) at 80% confluency and the transfected cells were cultured in the same media for 48 hr before electrophysiological and biochemical studies.
(§1) Whole-Cell Patch Clamp Recordings in HEK293 Cells, CHO Cells, and DRG Neurons. Whole-cell patch clamp recordings were performed at room temperature using an Axopatch-200B amplifier (Axon Instruments) with a Digidata 1440B (Axon Instruments). In this study, we only examined small-diameter mouse DRG neurons (<25 μM) and small-diameter human DRG neurons (<55 μM). The patch pipettes were pulled from borosilicate capillaries (World Precision Instruments) using a P-97 Flaming/Brown micropipette puller (Sutter Instrument). Pipette resistance was 4-6 MΩ for whole-cell and outside-out recording. For inward current recordings in mouse and human DRG neurons, HEK293 cells, and CHO cells, the internal solution contains (in mM): 140 CsCl, 10 EGTA, 10 HEPES, and 2 Mg-ATP, adjusted to pH 7.3 with CsOH. Whole cell recordings were performed in an extracellular solution that contains (in mM): 140 NaCl, 5 KCl, 2 MgCl2, 10 HEPES, and 10 glucose, adjusted to pH 7.4 with NaOH and osmolarity to 300-310 mOsm. […] Action potential recordings were performed in small-diameter DRG neurons, with the following solutions: i) internal pipette solution contains: 126 mM K-gluconate, 10 mM NaCl, 1 mM MgCl2, 10 mM EGTA, 10 mM HEPES and 2 mM Na-ATP, adjusted to pH 7.4 with KOH and osmolarity to 295-300 mOsm), and ii) extracellular solution contains: 140 mM NaCl, 5 mM KCl, 2 mM MgCl2, 2 mM CaCl2, 10 mM HEPES, 10 mM glucose, adjusted to pH 7.4 with KOH.

[2] = system: small-diameter DRG neurons; assay: Patch clamp, inward currents and action potentials in small-diameter mouse DRG neurons; assay type: cell-based; conditions: for small-diameter neurons responding with inward currents or action potentials: AITC 15/90, miR-711 15/130
Method: Primary Cultures of Mouse and Human Sensory Neurons. DRGs or TGs were removed aseptically from mice (4-6 weeks) and incubated with collagenase (1.25 mg/mL, Roche)/dispase-II (2.4 units/mL, Roche) at 37° C. for 90 min, then digested with 0.25% trypsin for 8 min at 37° C., followed by 0.25% trypsin inhibitor. Cells were mechanically dissociated with a flame polished Pasteur pipette in the presence of 0.05% DNase I (Sigma). DRG cells were plated on glass coverslips and grown in a neurobasal defined medium (with 2% B27 supplement, Invitrogen) with 5 μM AraC and 5% CO2 at 36.5° C. DRG neurons were grown for 24 hr before use.
as §1

DRG neurons = assay: Calcium imaging in cultured DRG neurons of Pirt-GCaMP3 mice; assay type: cell-based, mouse; conditions: for DRG neurons showing Ca2+ increase / responses: 544 neurons from 3 mice
Method: Primary Cultures of Mouse and Human Sensory Neurons. […] Cells were mechanically dissociated with a flame polished Pasteur pipette in the presence of 0.05% DNase I (Sigma).
Ca^2+ Imaging. […] The imaging buffer includes 140 mM NaCl, 10 mM D-(+)-Glucose, 1 mM MgCl2, 2 mM CaCl2, 5 mM KCl, 10 mM HEPES, pH=7.4, osmolarity=320 mOsm/L. Calcium signals were measured using green emitted light in a 3 s interval. Ca ^2+ signal amplitudes were presented as ΔF/F0=(Ft−F0)/F0 as ratio of fluorescence difference (Ft−F0) to basal value (F0). The average fluorescence intensity in the baseline period was taken as F0. Ca ^2+ imaging was also analyzed in HEK293-TRPA1 cell line after loading cells with […] fura2-AM (Invitrogen) for 40 min in the Ca^2+ imaging buffer. Ca^2+ imaging protocol was a ratio metric method with 340/380-nm wavelength light for dual excitation. Data were presented as ΔR/R0, determined as the fraction ΔR (Rt−R0) of the increase of a given ratio over baseline ratio (R0).

hTRPA1 [3] = biological target: T1, hTRPA1; assay: RNA pull-down assay and immunoblotting; assay type: binding
Method: RNA Pull-Down Assay and Immunoblotting. hTRPA1-expressing HEK293 cells of equal amount (5×10^6) were plated onto 60 mm dishes, and 24 hr later, these cells were incubated with biotin-conjugated miR-711 or miR-711 (m6) in extracellular solution containing 140 mM NaCl, 5 mM KCl, 2 mM CaCl2, 1 mM MgCl2, 10 mM HEPES, and 10 mM glucose, adjusted to pH 7.4 for 15 min at 37° C. with 5% CO2. For crosslinking, 1% formaldehyde (vol/vol) was added at 37° C. for 10 min, then 12.5% glycine was applied to stop crosslinking by 5 min incubation at room temperature. Then the cells were collected and sonicated with ultrosonic probe sonicator (80% output, 5 s on and 10 s off) in 1 mL lysis buffer (1% Triton X-100, 50 mM Tris-HCl, 150 mM NaCl, 5 mM EDTA, pH7.4) on ice for 2 min. We then centrifuged the lysate at 13,000 rpm for 10 min at 4° C. and took 50 μL supernatant as lysate control. The remaining supernatant was added 20 μL streptadvilin agrose beads and incubated overnight. The pellets were collected after centrifuge at 6000 rmp for 30 s. For competing assay, miR-711 (10-50 μM) or mutant miR-711 (m6, 10-50 μM) were added 15 min before the incubation with biotin-conjugated miR-711 (10 μM). For immunoblotting, the lysates or beads were incubated in SDS-PAGE loading buffer for 30 min at 50° C., and supernatant was collected after centrifugation at 13000 rpm and decrosslink at 99° C. for 20 min. The samples were separated on an SDS-PAGE gel, transferred, and probed with TRPA1 antibody (1:1000; Alomone labs). The immunoreactive bands were detected with horseradish peroxidase-conjugated secondary antibody, visualized with enhanced chemiluminescence (Thermo scientific, Pittsburgh, Pa.), and quantified with Image-Pro Plus software (Media Cybernetics, Bethesda, Md.). Each experiment was repeated at least three times.

[4] = miR-711 50 μM, histamine 500 μM, CQ 1,000 μM, AITC 200 μM

T1 sequence (O75762 whole entry): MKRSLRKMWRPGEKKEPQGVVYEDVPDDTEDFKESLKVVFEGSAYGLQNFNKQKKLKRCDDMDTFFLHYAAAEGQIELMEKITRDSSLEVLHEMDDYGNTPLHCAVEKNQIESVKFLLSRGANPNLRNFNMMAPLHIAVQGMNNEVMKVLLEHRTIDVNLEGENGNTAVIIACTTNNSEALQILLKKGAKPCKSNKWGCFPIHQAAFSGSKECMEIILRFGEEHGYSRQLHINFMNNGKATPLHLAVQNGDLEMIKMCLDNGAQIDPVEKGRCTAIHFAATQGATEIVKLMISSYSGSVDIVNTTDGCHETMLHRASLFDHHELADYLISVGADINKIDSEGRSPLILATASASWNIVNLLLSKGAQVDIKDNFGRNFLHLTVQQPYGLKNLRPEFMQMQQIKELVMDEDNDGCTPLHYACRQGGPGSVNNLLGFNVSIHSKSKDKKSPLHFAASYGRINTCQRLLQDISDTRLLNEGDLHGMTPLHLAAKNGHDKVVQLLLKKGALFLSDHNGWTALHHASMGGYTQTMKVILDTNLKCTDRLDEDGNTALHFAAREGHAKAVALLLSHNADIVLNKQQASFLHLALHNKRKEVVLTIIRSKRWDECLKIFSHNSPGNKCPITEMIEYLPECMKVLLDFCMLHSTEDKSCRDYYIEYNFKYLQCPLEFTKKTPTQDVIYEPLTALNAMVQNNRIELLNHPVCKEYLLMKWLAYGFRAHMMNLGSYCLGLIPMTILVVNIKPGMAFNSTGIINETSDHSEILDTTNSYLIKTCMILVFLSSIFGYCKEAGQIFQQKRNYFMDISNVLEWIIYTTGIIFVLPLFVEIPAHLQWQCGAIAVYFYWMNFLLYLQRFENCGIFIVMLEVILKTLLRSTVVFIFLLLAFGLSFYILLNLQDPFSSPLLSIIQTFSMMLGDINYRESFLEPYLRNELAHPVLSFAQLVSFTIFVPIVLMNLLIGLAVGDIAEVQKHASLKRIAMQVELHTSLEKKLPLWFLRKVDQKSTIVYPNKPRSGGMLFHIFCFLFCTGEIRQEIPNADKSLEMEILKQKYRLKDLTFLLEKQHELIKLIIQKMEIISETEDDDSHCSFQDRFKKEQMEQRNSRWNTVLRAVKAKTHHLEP

In the case of `CCC(=N\O)/C(C)=C/c1ccc(F)cc1` [A967079, (1E,3E)-1-(4-Fluorophenyl)-2-methyl-1-pentene-3-one oxime], the “block of miR-711-evoked currents” value (hTRPA1 [1]; A967079 10 and 50 μM) was “dose-dependently blocked”, the “block of miR-711-induced action potentials” value ([2]; A967079 10 μM) was “blocked” and the “block of miR-711-induced inward currents in DRG neurons” value ([2]; A967079 10 μM) was “blocked”. The “block of miR-711-evoked calcium responses in DRG neurons” value (DRG neurons; miR-711 50 μM, A967079 10 μM) was “completely blocked”.
For `C=CCN=C=S` [AITC], the “small-diameter neurons responding with inward currents or action potentials” value [2] was 16.7%, the “miR-711-responsive DRG neurons that also responded” value (DRG neurons; histamine 500 μM, CQ 1,000 μM, AITC 200 μM) was “all” and the “DRG neurons showing Ca2+ increase / responses” value (DRG neurons; [4]) was 22.6%.
In the case of “NH2-FRNELAYPVLTFGQL-COOH (H-FRNELAYPVLTFGQL-OH) [blocking peptide]”, the “effect on AITC-induced inward current” value (hTRPA1 [1]; peptide 25 μM) was “did not affect”, the “inhibition of miR-711-induced TRPA1 inward currents” value (hTRPA1 [1]; peptide 25 μM) was “suppressed” and the “disruption of the miR-711/TRPA1 interaction” value (hTRPA1 [3]; RNA pull-down) was “disrupted the miR-711/TRPA1 interaction”.
In the case of “miR-711: mmu-miR-711: gggacccggggagagauguaag (SEQ ID NO: 5) (GGGACCCGGGGAGAGAUGUAAG; chemistry not given here)”, the “desensitization of TRPA1 after second application” value (hTRPA1 [1]; 10 μM) was “did not induce obvious desensitization”, the current-voltage relationship (hTRPA1 [1]; 10 μM, I/V curve) was “outward rectification” and the “reversal potential of evoked current” value (hTRPA1 [1]; 10 μM, I/V curve) was 0 mV. For the same compound, the inward currents (hTRPA1 [1]; bath application, miRNAs and core sequence 10 μM, AITC 50 μM) was “produced inward currents”, the “potency for inducing TRPA1 activation (dose-response curve)” value (hTRPA1 [1]; compared with AITC) was “more potent than AITC” and the “latency of inward currents” value (hTRPA1 [1]; miR-711 10 μM versus AITC 50 μM, bath perfusion) was “shorter than that of AITC”. For the same compound, the “competition with binding of biotin-labeled miR-711 to TRPA1” value (hTRPA1 [3]; 10-50 μM added 15 min before biotin-conjugated miR-711 (10 μM)) was “inhibited the binding”, the “action potentials in small-diameter DRG neurons” value ([2]; 10 μM, WT mice) was “induced action potentials” and the “inward currents in small-diameter DRG neurons” value ([2]; 10 μM, WT mice) was “induced rapid inward currents”. For the same compound, the “small-diameter neurons responding with inward currents or action potentials” value [2] was 11.5%, the “miR-711-induced excitation (action potentials)” value ([2]; TRPA1-deficient neurons) was “lost” and the “miR-711-induced inward currents in DRG neurons of knockout mice” value ([2]; Trpa1 knockout mice) was “abolished”. For the same compound, the action potential duration ([2]; compared with AITC) was “shorter duration”, the “after-hyperpolarization of the action potentials” value ([2]; compared with AITC) was “did not differ” and the “calcium signaling in DRG neurons” value (DRG neurons; 10 μM) was “did not evoke meaningful calcium signaling”. For the same compound, the “DRG neurons showing Ca2+ increase / responses” value (DRG neurons; [4]) was 3.9% and the “DRG neurons showing calcium responses” value (DRG neurons; miR-711 50 μM, 15 of 310 neurons) was 4.8%.
